Data as given in patent US20090326037A1 (priority 2005, published 2009).
Where a name gives a salt, the structure may show the parent alone.

Legend:
[1] = test system: influenza A/Singapore/1/57 virus; assay: microbe, parasite or virus in culture; format: cell-based
[2] = Toxicity (lethal effect, LD50) in mice; format: in vivo; conditions: endogastrically, observation 14 days
Procedure: Determination of toxicity of 1-methyl-2-phenylthiomethyl-3-carbethoxy-5-oxy-6-bromindol sulfon as compared with arbidol.
The administration of the preparations was carried out endogastrically, the period of observation of the animals was 14 days.

[3] = Influenza A virus, MDCK, read-out: percent of inhibition of viral reproduction

In the case of `CCOC(=O)c1c(CSc2ccccc2)n(C)c2cc(Br)c(O)c(CN(C)C)c12` [Arbidol, 1-methyl-2-phenylthiomethyl-3-carbethoxy-4-dimethylaminomethyl-5-oxy-6-bromindol hydrochloride], the “Percent of inhibition of OD 490” value ([1]; A or C 10 μg/ml + Oseltamivir 12.3 μg, added 2 hours after infection) is reported as 100%, the “Percent of inhibition of OD 490” value ([1]; A or C 10 μg/ml + Oseltamivir 41 μg, added 2 hours after infection) is reported as 100% and the “Percent of inhibition of OD 490” value ([1]; A or C 10 μg/ml alone (Oseltamivir 0), added 2 hours after infection) is reported as 20%. The “Percent of inhibition of OD 490” value ([1]; A or D 1 μg/ml + Amantadin 0.3 μg/ml, added 30 min prior to infection) was 30%, the “Percent of inhibition of OD 490” value ([1]; A or D 1 μg/ml + Amantadin 1 μg/ml, added 30 min prior to infection) was 30% and the “Percent of inhibition of OD 490” value ([1]; A or D 1 μg/ml + Amantadin 5 μg/ml, added 30 min prior to infection) was 52%. For the same compound, the “Percent of inhibition of OD 490” value ([1]; A or D 1 μg/ml + Amantadin 10 μg/ml, added 30 min prior to infection) was 59%, the “Percent of inhibition of OD 490” value ([1]; A or D 1 μg/ml + Remantadin 0.3 μg/ml, added 30 min prior to infection) was 31% and the “Percent of inhibition of OD 490” value ([1]; A or D 1 μg/ml + Remantadin 1 μg/ml, added 30 min prior to infection) was 33%. For the same compound, the “Percent of inhibition of OD 490” value ([1]; A or D 1 μg/ml + Remantadin 5 μg/ml, added 30 min prior to infection) was 50%, the “Percent of inhibition of OD 490” value ([1]; A or D 1 μg/ml + Remantadin 10 μg/ml, added 30 min prior to infection) was 59% and the “Percent of inhibition of OD 490” value ([1]; A or D 1 μg/ml alone (Amantadin 0), added 30 min prior to infection) was 30%. The “Percent of inhibition of OD 490” value ([1]; A or D 1 μg/ml alone (Remantadin 0), added 30 min prior to infection) was 30%, the “Percent of inhibition of OD 490” value ([1]; A or D 5 μg/ml + Amantadin 0.3 μg/ml, added 30 min prior to infection) was 60% and the “Percent of inhibition of OD 490” value ([1]; A or D 5 μg/ml + Amantadin 1 μg/ml, added 30 min prior to infection) was 68%. The “Percent of inhibition of OD 490” value ([1]; A or D 5 μg/ml + Amantadin 5 μg/ml, added 30 min prior to infection) was 74%, the “Percent of inhibition of OD 490” value ([1]; A or D 5 μg/ml + Amantadin 10 μg/ml, added 30 min prior to infection) was 81% and the “Percent of inhibition of OD 490” value ([1]; A or D 5 μg/ml + Remantadin 0.3 μg/ml, added 30 min prior to infection) was 63%. For the same compound, the “Percent of inhibition of OD 490” value ([1]; A or D 5 μg/ml + Remantadin 1 μg/ml, added 30 min prior to infection) was 71%, the “Percent of inhibition of OD 490” value ([1]; A or D 5 μg/ml + Remantadin 5 μg/ml, added 30 min prior to infection) was 74% and the “Percent of inhibition of OD 490” value ([1]; A or D 5 μg/ml + Remantadin 10 μg/ml, added 30 min prior to infection) was 82%. The “Percent of inhibition of OD 490” value ([1]; A or D 5 μg/ml alone (Amantadin 0), added 30 min prior to infection) was 38%, the “Percent of inhibition of OD 490” value ([1]; A or D 5 μg/ml alone (Remantadin 0), added 30 min prior to infection) was 38% and the “Percent of inhibition of OD 490” value ([1]; A or D 10 μg/ml + Amantadin 0.3 μg/ml, added 30 min prior to infection) was 77%. For the same compound, the “Percent of inhibition of OD 490” value ([1]; A or D 10 μg/ml + Amantadin 1 μg/ml, added 30 min prior to infection) was 81%, the “Percent of inhibition of OD 490” value ([1]; A or D 10 μg/ml + Amantadin 5 μg/ml, added 30 min prior to infection) was 82% and the “Percent of inhibition of OD 490” value ([1]; A or D 10 μg/ml + Amantadin 10 μg/ml, added 30 min prior to infection) was 85%. The “Percent of inhibition of OD 490” value ([1]; A or D 10 μg/ml + Remantadin 0.3 μg/ml, added 30 min prior to infection) was 78%, the “Percent of inhibition of OD 490” value ([1]; A or D 10 μg/ml + Remantadin 1 μg/ml, added 30 min prior to infection) was 80% and the “Percent of inhibition of OD 490” value ([1]; A or D 10 μg/ml + Remantadin 5 μg/ml, added 30 min prior to infection) was 82%. The “Percent of inhibition of OD 490” value ([1]; A or D 10 μg/ml + Remantadin 10 μg/ml, added 30 min prior to infection) was 86%, the “Percent of inhibition of OD 490” value ([1]; A or D 10 μg/ml alone (Amantadin 0), added 30 min prior to infection) was 67% and the “Percent of inhibition of OD 490” value ([1]; A or D 10 μg/ml alone (Remantadin 0), added 30 min prior to infection) was 67%. For the same compound, the “percent of inhibition of viral reproduction” value ([1]; Arbidol 3 μg/ml + Ribavirin 1 μg/ml) was 19%, the “percent of inhibition of viral reproduction” value ([1]; Arbidol 3 μg/ml + Ribavirin 3 μg/ml) was 30% and the “percent of inhibition of viral reproduction” value ([1]; Arbidol 3 μg/ml + Ribavirin 10 μg/ml) was 52%. The “percent of inhibition of viral reproduction” value ([1]; Arbidol 3 μg/ml + Ribavirin 15 μg/ml) was 54%, the “percent of inhibition of viral reproduction” value ([1]; Arbidol 10 μg/ml + Ribavirin 1 μg/ml) was 26% and the “percent of inhibition of viral reproduction” value ([1]; Arbidol 10 μg/ml + Ribavirin 3 μg/ml) was 35%. For the same compound, the “percent of inhibition of viral reproduction” value ([1]; Arbidol 10 μg/ml + Ribavirin 10 μg/ml) was 85%, the “percent of inhibition of viral reproduction” value ([1]; Arbidol 10 μg/ml + Ribavirin 15 μg/ml) was 82% and the “percent of inhibition of viral reproduction” value ([1]; Arbidol 15 μg/ml + Ribavirin 1 μg/ml) was 43%. For the same compound, the “percent of inhibition of viral reproduction” value ([1]; Arbidol 15 μg/ml + Ribavirin 3 μg/ml) was 41%, the “percent of inhibition of viral reproduction” value ([1]; Arbidol 15 μg/ml + Ribavirin 10 μg/ml) was 82% and the “percent of inhibition of viral reproduction” value ([1]; Arbidol 15 μg/ml + Ribavirin 15 μg/ml) was 80%. The “percent of inhibition of viral reproduction” value ([1]; Arbidol 20 μg/ml + Ribavirin 1 μg/ml) was 65%, the “percent of inhibition of viral reproduction” value ([1]; Arbidol 20 μg/ml + Ribavirin 3 μg/ml) was 68% and the “percent of inhibition of viral reproduction” value ([1]; Arbidol 20 μg/ml + Ribavirin 10 μg/ml) was 80%. The “percent of inhibition of viral reproduction” value ([1]; Arbidol 20 μg/ml + Ribavirin 15 μg/ml) was 82%, the inhibition at 3 µg/mL [1, 3] was under 0% and the inhibition at 10 µg/mL [1, 3] was 23%. For the same compound, the inhibition at 15 µg/mL [1, 3] was 40%, the inhibition at 20 µg/mL [1, 3] was 55% and the “inhibition of the virus” value ([1]; combination of 3 μg/ml of arbidol and 3.3 mg of zanamivir (oseltamivir), 2 hours after infection) was 90%. The “Lethal effect upon administration to mice” value ([2]; Dose 100 mg/kg) was 0/6, the “Lethal effect upon administration to mice” value ([2]; Dose 250 mg/kg) was 0/6 and the “Lethal effect upon administration to mice” value ([2]; Dose 500 mg/kg) was 1/6. For the same compound, the “Lethal effect upon administration to mice” value ([2]; Dose 1000 mg/kg) was 3/6, the “Lethal effect upon administration to mice” value ([2]; Dose 3000 mg/kg) was 6/6 and the LD50 at 14 days ([2]; mouse, in vivo, oral, mice) was 860 ± 50 mg/kg.
